The source made the active and inactive calls. The rule behind the calls is not given here.
System: rodent carcinogenicity bioassays, tumor incidence
Experiment: CCRIS carcinogenicity studies
In short: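 NCI-built, expert-reviewed records of carcinogenicity and related test outcomes (mutagenicity, tumor promotion/inhibition) compiled from published and report sources, historical span 1985-2011, not updated.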

Which results are given for `Cc1ccc([N+](=O)[O-])cc1`?
carcinogen call (Species: MOUSE, Strain/Sex: B6C3F1/FEMALE, Route: ORAL, Dose: 0, 1250, 2500, 5000 PPM FOR 105-106 WK (STUDY DURATION: 105-106 WK), Dose: 0, 1250, 2500, 5000 PPM FOR 105-106 WK (STUDY DURATION: 105-106 WK)): inactive; negative; carcinogen call (Species: MOUSE, Strain/Sex: B6C3F1/MALE, Route: ORAL, Dose: 0, 1250, 2500, 5000 PPM FOR 105-106 WK (STUDY DURATION: 105-106 WK), Dose: 0, 1250, 2500, 5000 PPM FOR 105-106 WK (STUDY DURATION: 105-106 WK), Tumor Site: Type of Lesion: LUNG: ALVEOLAR/BRONCHIOLAR ADENOMA OR CARCINOMA): equivocal; carcinogen call (Species: RAT, Strain/Sex: F344/FEMALE, Route: ORAL, Dose: 0, 1250, 2500, 5000 PPM FOR 105-106 WK (STUDY DURATION: 105-106 WK), Dose: 0, 1250, 2500, 5000 PPM FOR 105-106 WK (STUDY DURATION: 105-106 WK), Tumor Site: Type of Lesion: CLITORAL GLAND: ADENOMA OR CARCINOMA): active; positive; carcinogen call (Species: RAT, Strain/Sex: F344/MALE, Route: ORAL, Dose: 0, 1250, 2500, 5000 PPM FOR 105-106 WK (STUDY DURATION: 105-106 WK), Dose: 0, 1250, 2500, 5000 PPM FOR 105-106 WK (STUDY DURATION: 105-106 WK), Tumor Site: Type of Lesion: SKIN (SUBCUTANEOUS):FIBROMA, FIBROMA OR FIBROSARCOMA): equivocal

For `Clc1ccccc1Cl`, which carcinogen call (Species: MOUSE, Strain/Sex: B6C3F1/FEMALE, Route: GAVAGE, Dose: 0, 60, 120 MG/KG BODY WT IN CORN OIL 5 D/WK FOR 103 WK, Dose: 0, 60, 120 MG/KG BODY WT IN CORN OIL 5 D/WK FOR 103 WK) is on record?
The carcinogen call was “inactive; negative”.

What about the carcinogen call (Species: MOUSE, Strain/Sex: B6C3F1/MALE, Route: GAVAGE, Dose: 0, 60, 120 MG/KG BODY WT IN CORN OIL 5 D/WK FOR 103 WK, Dose: 0, 60, 120 MG/KG BODY WT IN CORN OIL 5 D/WK FOR 103 WK) of the same compound?
Its carcinogen call is “inactive; negative”.

What about the carcinogen call (Species: RAT, Strain/Sex: F344/FEMALE, Route: GAVAGE, Dose: 0, 60, 120 MG/KG BODY WT IN CORN OIL 5 D/WK FOR 103 WK, Dose: 0, 60, 120 MG/KG BODY WT IN CORN OIL 5 D/WK FOR 103 WK) of the same compound?
The carcinogen call was “inactive; negative”.

What about the carcinogen call (Species: RAT, Strain/Sex: F344/MALE, Route: GAVAGE, Dose: 0, 60, 120 MG/KG BODY WT IN CORN OIL 5 D/WK FOR 103 WK, Dose: 0, 60, 120 MG/KG BODY WT IN CORN OIL 5 D/WK FOR 103 WK) of the same compound?
The carcinogen call was “inactive; negative”.

`CCC1(c2ccccc2)C(=O)NC(=O)NC1=O` was tested. Which carcinogen call (Species: MOUSE, Strain/Sex: 6HF1/MALE, Route: ORAL, Dose: 0, 0.05% IN BASAL DIET FOR 104 WK (STUDY DURATION: 104 WK), Tumor Site: Type of Lesion: LIVER: TUMOR) did it give?
The carcinogen call was “active; positive”.

Which results are given for `C/C=C/C=C/C=O`?
carcinogen call (Species: MOUSE, Strain/Sex: B6C3F1/FEMALE, Route: GAVAGE, Dose: 0, 30, 60, 120 MG/KG IN CORN OIL 5 D/WK FOR DURATION OF STUDY (STUDY DURATION: 105 WK), Dose: 0, 30, 60, 120 MG/KG IN CORN OIL 5 D/WK FOR DURATION OF STUDY (STUDY DURATION: 105 WK), Tumor Site: Type of Lesion: FORESTOMACH: SQUAMOUS CELL PAPILLOMA, SQUAMOUS CELL CARCINOMA, SQUAMOUS CELL PAPILLOMA OR CARCINOMA): active; positive; carcinogen call (Species: MOUSE, Strain/Sex: B6C3F1/MALE, Route: GAVAGE, Dose: 0, 30, 60, 120 MG/KG IN CORN OIL 5 D/WK FOR DURATION OF STUDY (STUDY DURATION: 105 WK), Dose: 0, 30, 60, 120 MG/KG IN CORN OIL 5 D/WK FOR DURATION OF STUDY (STUDY DURATION: 105 WK), Tumor Site: Type of Lesion: FORESTOMACH: SQUAMOUS CELL PAPILLOMA, SQUAMOUS CELL CARCINOMA, SQUAMOUS CELL PAPILLOMA OR CARCINOMA): active; positive; carcinogen call (Species: RAT, Strain/Sex: F344/FEMALE, Route: GAVAGE, Dose: 0, 22.5, 45, 90 MG/KG IN CORN OIL 5 D/WK FOR DURATION OF STUDY (STUDY DURATION: 105 WK), Dose: 0, 22.5, 45, 90 MG/KG IN CORN OIL 5 D/WK FOR DURATION OF STUDY (STUDY DURATION: 105 WK), Tumor Site: Type of Lesion: FORESTOMACH: SQUAMOUS CELL PAPILLOMA): active; positive; carcinogen call (Species: RAT, Strain/Sex: F344/MALE, Route: GAVAGE, Dose: 0, 22.5, 45, 90 MG/KG IN CORN OIL 5 D/WK FOR DURATION OF STUDY (STUDY DURATION: 105 WK), Dose: 0, 22.5, 45, 90 MG/KG IN CORN OIL 5 D/WK FOR DURATION OF STUDY (STUDY DURATION: 105 WK), Tumor Site: Type of Lesion: FORESTOMACH: SQUAMOUS CELL PAPILLOMA, SQUAMOUS CELL CARCINOMA, SQUAMOUS CELL PAPILLOMA OR CARCINOMA): active; positive

`FC(F)OC(Cl)C(F)(F)F` (stereo unspecified) was tested. Which carcinogen call (Species: MOUSE, Strain/Sex: SWISS/FEMALE, Route: INHALATION, Dose: 0, 0.1, 0.4% IN AIR 4 HR/D 5 D/WK FOR 78 WK (STUDY DURATION: 81 WK), Dose: 0, 0.1, 0.4% IN AIR 4 HR/D 5 D/WK FOR 78 WK (STUDY DURATION: 81 WK)) did it give?
The carcinogen call was “inactive; negative”.

What about the carcinogen call (Species: MOUSE, Strain/Sex: SWISS/MALE, Route: INHALATION, Dose: 0, 0.1, 0.4% IN AIR 4 HR/D 5 D/WK FOR 78 WK (STUDY DURATION: 81 WK), Dose: 0, 0.1, 0.4% IN AIR 4 HR/D 5 D/WK FOR 78 WK (STUDY DURATION: 81 WK)) of the same compound?
The carcinogen call was “inactive; negative”.

What does the source list for `CC(=O)OC[C@H]1O[C@H](O[C@]2(COC(C)=O)O[C@H](COC(=O)C(C)C)[C@@H](OC(=O)C(C)C)[C@@H]2OC(=O)C(C)C)[C@H](OC(=O)C(C)C)[C@@H](OC(=O)C(C)C)[C@@H]1OC(=O)C(C)C`?
carcinogen call (Species: MONKEY, Strain/Sex: CYNOMOLGUS/FEMALE, Route: GAVAGE, Dose: 0, 500, 1450, 2400 MG/KG BW 1X/D FOR 52 WK (STUDY DURATION: 52 WK), Dose: 0, 500, 1450, 2400 MG/KG BW 1X/D FOR 52 WK (STUDY DURATION: 52 WK)): inactive; negative; carcinogen call (Species: MONKEY, Strain/Sex: CYNOMOLGUS/MALE, Route: GAVAGE, Dose: 0, 500, 1450, 2400 MG/KG BW 1X/D FOR 52 WK (STUDY DURATION: 52 WK), Dose: 0, 500, 1450, 2400 MG/KG BW 1X/D FOR 52 WK (STUDY DURATION: 52 WK)): inactive; negative; carcinogen call (Species: MOUSE, Strain/Sex: B6C3F1/FEMALE, Route: ORAL, Dose: 0, 1.25, 2.5, 5 G/KG BW IN DIET FOR 2 YR (STUDY DURATION: 2 YR), Dose: 0, 1.25, 2.5, 5 G/KG BW IN DIET FOR 2 YR (STUDY DURATION: 2 YR)): inactive; negative; carcinogen call (Species: MOUSE, Strain/Sex: B6C3F1/MALE, Route: ORAL, Dose: 0, 1.25, 2.5, 5 G/KG BW IN DIET FOR 2 YR (STUDY DURATION: 2 YR), Dose: 0, 1.25, 2.5, 5 G/KG BW IN DIET FOR 2 YR (STUDY DURATION: 2 YR)): inactive; negative; carcinogen call (Species: RAT, Strain/Sex: F344/FEMALE, Route: ORAL, Dose: 0 0.5, 1, 2 G/KG BE IN DIET FOR 2 YR (STUDY DURATION: 2 YR), Dose: 0 0.5, 1, 2 G/KG BE IN DIET FOR 2 YR (STUDY DURATION: 2 YR)): inactive; negative; carcinogen call (Species: RAT, Strain/Sex: F344/MALE, Route: ORAL, Dose: 0, 0.5, 1, 2 G/KG BW IN DIET FOR 2 YR (STUDY DURATION: 2 YR), Dose: 0, 0.5, 1, 2 G/KG BW IN DIET FOR 2 YR (STUDY DURATION: 2 YR)): inactive; negative

`CC(C)CCC[C@@H](C)[C@H]1CC[C@H]2[C@@H]3C[C@@H]4O[C@@]45C[C@@H](O)CC[C@]5(C)[C@H]3CC[C@]12C` was tested. Which carcinogen call (Species: RAT, Strain/Sex: STRAIN-CD/FEMALE, Route: INJECTION, Dose: 0, 12.3 UMOL (TOTAL DOSE) 1/6 INJECTED UNDER EACH OF 3 THORACIC AND 3 INGUINAL NIPPLES ONCE (STUDY DURATION: 44 WK)) did it give?
The carcinogen call was “inactive; negative”.

Which carcinogen call (Species: MOUSE, Strain/Sex: SWISS/FEMALE, Route: INTRAGASTRIC, Dose: 0, 10, 50, 250 MG/KG IN OLIVE OIL 1/D, 5 D/WK FOR 78 WK (STUDY DURATION: 83 WK), Dose: 0, 10, 50, 250 MG/KG IN OLIVE OIL 1/D, 5 D/WK FOR 78 WK (STUDY DURATION: 83 WK)) does the source give for `C=Cc1ccc(C)cc1` here?
The carcinogen call was “inactive; negative”.

What about the carcinogen call (Species: MOUSE, Strain/Sex: SWISS/MALE, Route: INTRAGASTRIC, Dose: 0, 10, 50, 250 MG/KG IN OLIVE OIL 1/D, 5 D/WK FOR 78 WK (STUDY DURATION: 83 WK), Dose: 0, 10, 50, 250 MG/KG IN OLIVE OIL 1/D, 5 D/WK FOR 78 WK (STUDY DURATION: 83 WK)) of the same compound?
Its carcinogen call is “inactive; negative”.

What about the carcinogen call (Species: RAT, Strain/Sex: SPRAGUE-DAWLEY/FEMALE, Route: INTRAGASTRIC, Dose: 0, 10, 50, 250, 500 MG/KG IN OLIVE OIL 1/D, 5 D/WK FOR 104 WK (STUDY DURATION: 123 WK), Dose: 0, 10, 50, 250, 500 MG/KG IN OLIVE OIL 1/D, 5 D/WK FOR 104 WK (STUDY DURATION: 123 WK)) of the same compound?
The carcinogen call was “inactive; negative”.

And the carcinogen call (Species: RAT, Strain/Sex: SPRAGUE-DAWLEY/MALE, Route: INTRAGASTRIC, Dose: 0, 10, 50, 250, 500 MG/KG IN OLIVE OIL 1/D, 5 D/WK FOR 104 WK (STUDY DURATION: 123 WK), Dose: 0, 10, 50, 250, 500 MG/KG IN OLIVE OIL 1/D, 5 D/WK FOR 104 WK (STUDY DURATION: 123 WK))?
The carcinogen call was “inactive; negative”.

— PubChem BioAssay AID1259411 (Chemical Carcinogenesis Research Information System (CCRIS), 2018)
